Data reported in paper PMC9437101, “Curcumin-based-fluorescent probes targeting ALDH1A3 as a promising tool for glioblastoma precision surgery and early diagnosis” (Communications Biology, 2022).

Tests used:
[1] = Solubility in physiological buffer; format: physicochemical; conditions: among all five molecules
Text: All five fluorescent compounds were firstly characterized for their solubility in physiological buffer and for their absorbance values. We then performed a 3D analysis using a TECAN SPARK to simultaneously evaluate the excitation and the emission wavelengths, that were supposed to be similar to the curcumin ones[48]. […] For these reasons, we decided to continue the biochemical characterization on Probe 10 and 11 using the selected parameters (Fig. 2). The fluorescent signal changes for both molecules upon binding to the target, were firstly evaluated with recombinant human ALDH1A3. […] To better characterized our fluorescent compounds, we tested their potential cross-reactivity toward the other two isoforms of the ALDH1A subfamily. […] In addition, a wide range of biologically relevant analytes were tested at a concentration of 100 μM in complex with a fixed concentration of 10 μM of the probe (either probe 10 or probe 11), to make sure that no potential off-target signals could affect the analysis. More specifically, we checked if there were abnormal fluorescence signals that could have been contributed by the presence of biologically relevant compounds, (e.g., biologically relevant amino acids), to buffers and molecules commonly used in experimental procedures.

[2] = system: GL261 murine glioma cells; experiment: Imaging flow cytometry of living GL261 cells incubated with probe; format: cell-based; conditions: 1 h incubation
Experimental: GL261 cells were incubated, with probe 10 or 11, for 1 h and after three rinses in PBS, cells were detached by trypsin treatment and visualized without fixation through a rMarkII flow cytometer (Amnis, Luminex Corporation, Austin, TX, USA) as previously described. Data were collected using Inspire software (Amnis, version 2.0) with the following parameters: 10,000 images per sample, 488 nm laser (25 and 100 mW) to excite the probes, 785 nm laser used to provide a side scatter signal and measurement of SpeedBeads (Amnis, Luminex Corporation, Austin, TX, USA), 830 nm laser used for internal bead calibration of core flow speed and focus, ×60 objective, in low-speed flow. Data were further analyzed by Ideas software (Amnis, version 6.1).

ALDH1A1 = biological target: T1, ALDH1A1 (Homo sapiens, UniProt P00352); experiment: Kd evaluation by fluorescence emission assay; format: binding; conditions: probe 10 μM, ALDH1A1 100 to 1.1719 μM
T1 construct: E. coli BL21 (DE3) were transformed with the full-length expression vector of each isoform; His-tag; made in house; host or cells: E. coli BL21 (DE3)
T1 sequence (P00352 1-501): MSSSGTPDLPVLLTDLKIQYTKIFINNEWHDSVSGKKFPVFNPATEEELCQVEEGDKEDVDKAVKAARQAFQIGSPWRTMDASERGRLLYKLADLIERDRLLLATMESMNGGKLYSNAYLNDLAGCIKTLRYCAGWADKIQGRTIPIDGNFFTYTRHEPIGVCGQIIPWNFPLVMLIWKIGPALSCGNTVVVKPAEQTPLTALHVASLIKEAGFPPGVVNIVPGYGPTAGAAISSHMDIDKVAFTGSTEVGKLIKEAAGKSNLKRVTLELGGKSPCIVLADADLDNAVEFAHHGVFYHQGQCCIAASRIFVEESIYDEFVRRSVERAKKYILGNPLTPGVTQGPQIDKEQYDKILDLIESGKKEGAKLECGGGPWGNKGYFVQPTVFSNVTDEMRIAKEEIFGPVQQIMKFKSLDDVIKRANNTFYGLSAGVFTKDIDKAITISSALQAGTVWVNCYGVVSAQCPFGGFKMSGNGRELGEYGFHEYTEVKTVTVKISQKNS
Experimental: (§1) To evaluate the Kd constant between the two probes and the isoenzymes ALDH1A1, ALDH1A2 and ALDH1A3A we performed a fluorescence emission assay. We used a Tecan Spark with Greiner Bio-One 96-UV-Transparent Microplates. A single reaction was performed in a total volume of 100 μl per well containing 20 mM Tris HCl pH 8.0, 1 mM β-mercaptoethanol, 150 mM KCl, 500 μM NAD^+ and 10 μM fluorescent probe with a 5% DMSO final concentration, in the presence of different ALDH1As concentrations, from 100 μM to 1.1719 μM. Each reaction mix was preincubated for 10 min at 25 °C before the analysis. The obtained raw data were analyzed using GraphPad to calculate Kd values.

ALDH1A3 = biological target: T2, ALDH1A3 (Homo sapiens, UniProt P47895); experiment: Kd evaluation by fluorescence emission assay; format: binding; conditions: probe 10 μM, ALDH1A3 100 to 1.1719 μM
T2 construct: E. coli BL21 (DE3) were transformed with the full-length expression vector of each isoform; His-tag; made in house; host or cells: E. coli BL21 (DE3)
T2 sequence (P47895 1-512): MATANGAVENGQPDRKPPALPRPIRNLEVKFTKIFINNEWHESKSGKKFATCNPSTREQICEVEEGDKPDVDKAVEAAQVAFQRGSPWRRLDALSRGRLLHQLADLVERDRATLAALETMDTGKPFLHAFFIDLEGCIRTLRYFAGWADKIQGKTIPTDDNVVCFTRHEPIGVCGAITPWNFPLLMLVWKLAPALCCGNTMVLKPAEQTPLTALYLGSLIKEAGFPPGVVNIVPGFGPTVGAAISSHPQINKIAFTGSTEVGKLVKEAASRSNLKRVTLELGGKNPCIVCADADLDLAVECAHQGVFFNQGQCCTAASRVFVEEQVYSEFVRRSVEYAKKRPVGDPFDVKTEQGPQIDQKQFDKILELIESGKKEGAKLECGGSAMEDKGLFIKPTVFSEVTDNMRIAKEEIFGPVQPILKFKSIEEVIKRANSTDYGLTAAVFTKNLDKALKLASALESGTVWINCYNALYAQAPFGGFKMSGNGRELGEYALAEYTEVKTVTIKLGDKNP
Experimental: as §1

[3] = Absorbance, emission and excitation wavelengths evaluation; format: physicochemical; conditions: 10 µM in SEC buffer
Experimental: Fluorescent compounds were analyzed on a Tecan Spark to evaluate the correct parameters to further set the biochemical characterizations. The absorbance was evaluated in a range from 300 to 700 nm, with a wavelength step size of 5 nm. Based on the absorbance values, we settled a 3D fluorescence emission scan to evaluate the excitation and emission peaks. The analysis was conducted using the same buffer mix, as already described. The excitation range was set between 390 and 450 nm for both molecules, with a step size of 5 nm. The emission range was set between 485 and 700 nm for both molecules, with a step size of 5 nm. All these characterizations were performed on a Tecan Spark using Greiner Bio-One 96-UV-Transparent Microplates and the tests were carried out using a total volume of 100 μl for each well.

Row | SMILES | solubility in physiological buffer [1] | entry into and labelling of GL261 cells in vitro [2] | Kd (ALDH1A1) | Kd (ALDH1A3) | Abs [3] | Em [3] | Ex [3]
1 | CCOC(=O)Cn1cc(COc2ccc(/C=C/C(=O)/C=C(O)/C=C/c3ccc(O)c(OC)c3)cc2OC)nn1 [Probe 11] | highest solubility | able to enter and label the murine glioblastoma cells | 42.4 µM | 84.3 µM | 410 nm | 545 nm | 420 nm
2 | COc1cc(/C=C/C(O)=C/C(=O)/C=C/c2ccc(OCc3cn(CCOc4ccc(C=O)cc4)nn3)c(OC)c2)ccc1O [Probe 10] | highest solubility | able to enter and label the murine glioblastoma cells | 31.1 µM | 38.2 µM | 410 nm | 545 nm | 420 nm
